{"source": "patent US9211314B2", "about": "“Treatment selection for lung cancer patients using mass spectrum of blood-based sample” (Biodesix, Inc., priority 2014, dated 2015)", "key": {"[1]": {"tested_on": "advanced NSCLC patients", "assay": "PROSE study: second-line erlotinib versus chemotherapy, OS and PFS by VS2.0/VS1.0 classification", "assay_type": "in vivo, human", "description": "The final CMC/D classifier described above was subject to a test on mass spectra obtained from available samples from the PROSE study under a validation protocol. The final CMC/D classifier was deemed fixed prior to this validation protocol. Mass spectra were provided to analysts blinded to their clinical data. The spectra were analyzed as described above and the resulting classifications (Appendix G) were generated. An un-blinding key was then provided and a statistical analysis was carried out.\nFor patient 01—044 and patient 01—080, two samples were available. […] No samples were available for patient 01—050, patient 03—006, patient 06—004, patient 06—021, patient 11—043, patient 11—048, and patient 12—014."}, "[2]": {"tested_on": "advanced NSCLC patients", "conditions": "PROSE, patients classified as VSP (VS1.0); cited from earlier work"}, "[3]": {"tested_on": "advanced NSCLC patients", "assay": "Time-to-event outcomes (OS, PFS) of development set patients (Italian A, B, C cohorts) grouped by VS2.0/VS1.0 classification", "assay_type": "in vivo, human", "conditions": "for Cox HR (95% CI), OS / Cox HR (95% CI), PFS / Median OS / Median PFS: development set", "excerpt": "The following cohorts of patients had samples available for this project: sample sets known as “Italian A”, “Italian B”, “Italian C.” Italian A and B were cohorts of patients with advanced NSCLC treated with gefitinib used in the development and validation of the original VeriStrat test. See generally, U.S. Pat. No. 7,736,905; Taguchi et al., JNCI 99: 838-846 (2007). Italian C was a cohort of patients treated in advanced line with a variety of chemotherapy regimens.\nThe VS2.0 final classifier was applied to all samples in the development set. Note that this includes samples included in training of the classifier. The VS2.0 classifications of the development set samples are given in Appendix E. Notice that all samples with a VS1.0 classification of Poor were assigned a label of Early. OS and PFS are plotted for patients in the development set grouped according to: Late, Unknown and Early (excluding VS1.0 Poor) and VS 1.0 Poor in FIG. 6. Note that several patients in the Italian C cohort had OS data, but no PFS data. FIG. 6 is a plot of time-to-event outcomes of patients in the development set with labels assigned from development set spectra; FIG. 6A: OS for gefitinib-treated patients, FIG. 6B: PFS for gefitinib-treated patients, FIG. 6C: OS for chemotherapy-treated patients and FIG. 6D PFS for chemotherapy-treated patients."}, "[4]": {"conditions": "group Early/Unknown (VS1.0 Good)"}, "[5]": {"conditions": "comparison Early/Unk vs Late within treatment"}, "[6]": {"conditions": "comparison Poor vs Early/Unk within treatment"}, "[7]": {"conditions": "comparison Poor vs Late within treatment"}, "[8]": {"conditions": "group Early/Unknown (excluding VS1.0 Poor)"}}, "note": "Values joined by “and” are separate entries in the source; they are usually repeats but may differ in a detail not shown here. Equal entries are not always repeated."}
{"smiles": "C#Cc1cccc(Nc2ncnc3cc(OCCOC)c(OCCOC)cc23)c1", "note": "[ERL, erlotinib]", "values": [{"measurement": "Median OS", "setting": "[1]; [4]", "result": 9.6, "unit": "months"}, {"measurement": "Median PFS", "setting": "[1]; [4]", "result": 2.3, "unit": "months"}, {"measurement": "Median OS", "setting": "[1]; group Late", "result": 17.1, "unit": "months"}, {"measurement": "Median PFS", "setting": "[1]; group Late", "result": 3.9, "unit": "months"}, {"measurement": "Median OS", "setting": "[1]; group Late, listed as erlotinib", "result": "17.1 months and 17 months"}, {"measurement": "Median OS", "setting": "[1]; group VS1.0 Poor", "result": 3.1, "unit": "months"}, {"measurement": "Median PFS", "setting": "[1]; group VS1.0 Poor", "result": 1.7, "unit": "months"}, {"measurement": "HR (95% CI), OS, Treatment: CT vs ERL", "setting": "[1]; multivariate analysis of VS1.0 Good population", "result": "1.12 (0.85-1.65)"}, {"measurement": "Survival, erlotinib versus chemotherapy", "setting": "[2]", "result": "better survival on chemotherapy versus erlotinib"}]}
{"smiles": "COc1cc2ncnc(Nc3ccc(F)c(Cl)c3)c2cc1OCCCN1CCOCC1", "note": "[GEF, gefitinib]", "values": [{"measurement": "Cox HR (95% CI), OS", "setting": "[3]; [5]", "result": "0.59 (0.37-0.94)"}, {"measurement": "Cox HR (95% CI), PFS", "setting": "[3]; [5]", "result": "0.58 (0.37-0.91)"}, {"measurement": "Cox HR (95% CI), OS", "setting": "[3]; [6]", "result": "0.49 (0.33-0.75)"}, {"measurement": "Cox HR (95% CI), PFS", "setting": "[3]; [6]", "result": "0.64 (0.42-0.95)"}, {"measurement": "Cox HR (95% CI), OS", "setting": "[3]; [7]", "result": "0.30 (0.18-0.49)"}, {"measurement": "Cox HR (95% CI), PFS", "setting": "[3]; [7]", "result": "0.36 (0.22-0.60)"}, {"measurement": "Median OS", "setting": "[3]; [8]", "result": 243, "unit": "days"}, {"measurement": "Median PFS", "setting": "[3]; [8]", "result": 92, "unit": "days"}, {"measurement": "Median OS", "setting": "[3]; group Late", "result": 457, "unit": "days"}, {"measurement": "Median PFS", "setting": "[3]; group Late", "result": 208, "unit": "days"}, {"measurement": "Median OS", "setting": "[3]; group VS1.0 Poor", "result": 96.5, "unit": "days"}, {"measurement": "Median PFS", "setting": "[3]; group VS1.0 Poor", "result": 61.5, "unit": "days"}, {"measurement": "Benefit by overall survival curves, gefitinib versus chemotherapy", "setting": "[3]; patients whose sample tested Late, FIGS. 6A and 6C", "result": "greater benefit from gefitinib than chemotherapy"}]}
